Results as given in patent US20220313639A1, “MITOCHONDRIAL FUNCTION ACTIVATOR” (Yuki Gosei Kogyo Co., Ltd., priority 2019, published 2022).
Read-outs that look alike come from different tables or passages of the source.

Columns and labels:
[1] = system: C2C12 cells differentiated into myotube cells
Method: (§1) C2C12 cells were seeded in 6-well plates at 4.0×10^5 cells/well, and after 24 hours, β-alanine was added thereto at a concentration of 500 μM or 1 mM. In addition, 1×PBS was added to as a control well. After 2 hours from the above addition, the medium was removed by suction, and 2 mL/well of Mito Tracker Green FM (Invitrogen) which is diluted to 200 nM in DMEM medium containing 10% FBS, was added. Then, the whole was incubated for 30 minutes at 37° C. in the presence of 5% CO2 under shading. Then, the diluted solution was removed by suction, and 1×PBS was added at 1 mL/well to wash the cells. 1×PBS was removed by suction and trypsin was added at 500 μL/well. Then, trypsin was removed by suction and incubated at 37° C. in the presence of 5% CO2 for 5 minutes under shading. After incubation, the cells were suspended to 1 mL of DMEM medium containing 10% FBS to be collected in a 1.5 mL tube. After passing this cell suspension through a nylon mesh (Kyoshin Riko, Tokyo, Japan), the cells were measured by a flow cytometer (EPICS XL System II-JK, Beckman Coulter, CA, USA; Cell Analyzer EC800 CSC, Sony, Tokyo, Japan). The analysis was performed at the FCM analysis software FlowJo (TOMY Digital Biology, Tokyo, Japan).
(§2) In addition, cells were seeded, and β-alanine was added thereto at a concentration of 100 μM or 1 mM. […]

[2] = system: Pgc-1α gene; conditions: differentiated C2C12 cells, 48 hours, relative to β-actin, ΔΔCt method
[3] = system: undifferentiated mouse skeletal muscle-derived myoblast line, C2C12 cells; conditions: vs 1×PBS control
Method: (§3) C2C12 cells were subcultured at 37° C. in the presence of 5% CO2, using Dulbecco's Modified Eagle Medium (DMEM) (Nissui, Tokyo, Japan) containing 10% inactivated FBS, penicillin (100,000 U/L; Meiji, Tokyo, Japan), streptomycin (100 mg/L: Meiji), NaHCO3 (2.0 g/L: Wako, Osaka, Japan), and L-glutamine (Wako).
The number of mitochondria in C2C12 cells was measured as follows.
as §1
(§4) In addition, cells were seeded, and β-alanine was added thereto at a concentration of 100 μM or 1 mM. After 24 hours, β-alanine was secondary added, and the medium was aspirated after 24 hours of the second addition. Using the above cells treated with β-alanine for 48 hours as cells to which the diluted solution of Mito Tracker Green FM (Invitrogen) was added, the same procedure as the cells treated with β-alanine for 2 hours was repeated.
Mito Tracker Green FM (Invitrogen) is a fluorescent reagent that stains mitochondria independently of the membrane potential.
(§5) The procedure described in Example 1 was repeated, except that glycine was used instead of β-alanine.

[4] = system: C2C12 cells differentiated into myotube cells; remark: listed apart in the source
Method: as §1, with “The number of activated mitochondria in C2C12 cells was measured as follows. C2C12” for “C2C12”, “Red CMXRos (Invitrogen)” for “Green FM”, “250” for “200”, “tube.” for “tube. After passing this cell suspension through a nylon mesh (Kyoshin Riko, Tokyo, Japan), the cells were measured by a flow cytometer (EPICS XL System II-JK, Beckman Coulter, CA, USA; Cell Analyzer EC800 CSC, Sony, Tokyo, Japan). The analysis was performed at the FCM analysis software FlowJo (TOMY Digital Biology, Tokyo, Japan).”
(§6) After passing this cell suspension through a nylon mesh (Kyoshin Riko), the cells were measured by a flow cytometer (EPICS XL System II-JK, Beckman Coulter, CA, USA; Cell Analyzer EC800 CSC, Sony). The analysis was performed at the FCM analysis software FlowJo (TOMY Digital Biology, Tokyo, Japan).
as §2

[5] = system: undifferentiated mouse skeletal muscle-derived myoblast line, C2C12 cells; conditions: for mitochondrial activation (Mito Tracker Red CMXRos): vs 1×PBS control
Method: as §3
as §1, with “The number of activated mitochondria in C2C12 cells was measured as follows. C2C12” for “C2C12”, “Red CMXRos (Invitrogen)” for “Green FM”, “250” for “200”, “tube.” for “tube. After passing this cell suspension through a nylon mesh (Kyoshin Riko, Tokyo, Japan), the cells were measured by a flow cytometer (EPICS XL System II-JK, Beckman Coulter, CA, USA; Cell Analyzer EC800 CSC, Sony, Tokyo, Japan). The analysis was performed at the FCM analysis software FlowJo (TOMY Digital Biology, Tokyo, Japan).”
as §6
as §4, with “Red CMXRos” for “Green FM”
On the other hand, Mito Tracker Red CMXRos (Invitrogen) is a fluorescent reagent that stains mitochondria in a membrane potential-dependent manner. Therefore,
when a peak of the flow cytometer histogram shifts to the right by the addition of β-alanine, it indicates mitochondrial activity was enhanced.
as §5
The cells were prepared by repeating the procedure of Mito Tracker Red CMX Ros in Example 1 except that the treatment with β-alanine was set to 72 hours.

[6] = system: undifferentiated mouse skeletal muscle-derived myoblast line, C2C12 cells; conditions: 48 hours
Method: In this example, mitochondrial activation was examined by using a confocal laser scanning microscope.
The cells treated with β-alanine for 48 hours were prepared by the same procedure as in Example 1. C2C12 cells were seeded at a concentration of 3.0×10^4 cells/mL or 5.0×10^4 cell s/mL, and Mito Tracker Green FM (Invitrogen) and Mito Tracker Red CMXRos (Invitrogen) were added simultaneously. The resulting cells were observed under a confocal laser scanning microscope (Olympus).

[7] = system: Acaa2 gene; conditions: differentiated C2C12 cells; 500 μM
Method: (§7) In this example, the transcription of the genes for Acaa1b and Acaa2 in β-alanine-treated mouse skeletal muscle-derived myoblast line, C2C12 cells was measured.
(§8) The procedure described in Example 4 was repeated except that the Acaa1b forward primer and the Acaa1b reverse primer, or the Acaa2 forward primer and the Acaa2 reverse primer were used instead of the Pgc-1α forward primer and the Pgc-1α reverse primer.

[8] = system: Acaa1b gene; conditions: differentiated C2C12 cells; 500 μM
Method: as §7, §8

[9] = treatment time 2 hours, 500 μM or 1 mM
[10] = treatment time 48 hours, 100 μM or 1 mM

Compound | number of mitochondria (Mito Tracker Green FM) ([1]; treatment time 2 hours) | number of mitochondria (Mito Tracker Green FM) ([1]; treatment time 48 hours) | expression of Pgc-1α ([2]; 500 μM) | number of mitochondria (Mito Tracker Green FM) [3, 9] | number of mitochondria (Mito Tracker Green FM) [3, 10] | mitochondrial activation (Mito Tracker Red CMXRos) ([4]; treatment time 2 hours) | mitochondrial activation (Mito Tracker Red CMXRos) ([4]; treatment time 48 hours) | mitochondrial activation (Mito Tracker Red CMXRos) [5, 9] | mitochondrial activation (Mito Tracker Red CMXRos) [5, 10] | red fluorescence of Mito Tracker Red CMX Ros (confocal microscope) ([6]; 500 μM) | red fluorescence of Mito Tracker Red CMX Ros (confocal microscope) ([6]; 1 mM) | expression of Pgc-1α ([2]; 1 mM) | expression of Acaa2 [7] | expression of Acaa1b [8] | fluorescence of Mito Tracker Red (flow cytometry) ([5]; treatment 72 hours)
NCC(=O)O [glycine] | increased in a concentration-dependent manner | increased in a concentration-dependent manner | enhanced the expression | increased in a concentration-dependent manner | increased in a concentration-dependent manner | mitochondrial activation was confirmed | mitochondrial activation was confirmed | mitochondrial activation was confirmed | mitochondrial activation was confirmed | – | – | – | – | – | –
NCCC(=O)O [β-alanine, 3-aminopropanoic acid] | – | – | enhanced the expression | increased in a concentration-dependent manner | increased in a concentration-dependent manner | – | – | mitochondrial activation was confirmed | mitochondrial activation was confirmed | strengthened the red fluorescence | further strengthened the red fluorescence | enhanced the expression | enhanced the expression | enhanced the expression | increased the fluorescence
